# According to US20120015907A1, “Furopyridine compounds and uses thereof” (NOVARTIS AG, priority 2010, published 2012):
# Biological target: T1, HCV polymerase (Hepatitis C virus genotype 1b, UniProt Q9WMX2)
# T1 construct: (His)6 (C)
# Experiment: biochemical
# Conditions: NS5B polymerase IC50 μM, polymerase assay of Biological Example 1
row,Compound,IC50 [µM]
1,"CNC(=O)c1c(-c2ccc(C)cc2)oc2nc(N(CCCP(C)(=O)O)S(C)(=O)=O)c(C3CC3)cc12 [Example 23.99998, 3-(N-(5-cyclopropyl-3-(methylcarbamoyl)-2-p-tolylfuro[2,3-b]pyridin-6-yl)methylsulfonamido)propyl (methyl)phosphinic acid]",0.005

# Same assay, conditions: polymerase assay of Biological Example 1; read-out: NS5B polymerase IC50
row,IC50 [µM],Compound
1,0.128,"CCc1cc2c(C(=O)NC)c(-c3ccc(Oc4ccccc4)cc3)oc2nc1N(C)S(C)(=O)=O [Example 17, 5-ethyl-N-methyl-6-(N-methylmethylsulfonamido)-2-(4-phenoxyphenyl)furo[2,3-b]pyridine-3-carboxamide]"
2,0.243,"CNC(=O)c1c(-c2ccc(F)cc2)oc2nc(N(CCC(O)CO)S(C)(=O)=O)c(I)cc12 (stereo not shown) [Example 18.94, 6-(N-(3,4-dihyroxybutyl)methylsulfonamido)-2-(4-fluorophenyl)-5-iodo-N-methylfuro[2,3-b]pyridine-3-carboxamide]"
3,0.02,"CNC(=O)c1c(-c2ccc(C)cc2)oc2nc(N(CCC(CC(=O)O)N(C)C)S(C)(=O)=O)c(C3CC3)cc12 (stereo not shown) [Example 44, 5-[(5-Cyclopropyl-3-methylcarbamoyl-2-p-tolyl-furo[2,3-b]pyridin-6-yl)-methanesulfonyl-amino]-3-dimethylamino-pentanoic acid]"
4,0.002,"CNC(=O)c1c(-c2ccc(C)cc2)oc2nc(N(CCC[C@@H](C)C(=O)N[C@@H](C(=O)OC)c3ccccc3)S(C)(=O)=O)c(C3CC3)cc12 [Example 29.99998, (R)-methyl 2-((R)-5-(N-(5-cyclopropyl-3-(methylcarbamoyl)-2-p-tolylfuro[2,3-b]pyridin-6-yl)methylsulfonamido)-2-methylpentanamido)-2-phenylacetate]"
5,0.017,"C=CCCN(c1nc2oc(-c3ccc(C)cc3)c(C(=O)NC)c2cc1C1CC1)S(C)(=O)=O [Example 29.98, 6-(N-(but-3-enyl)methylsulfonamido)-5-cyclopropyl-N-methyl-2-p-tolylfuro[2,3-b]pyridine-3-carboxamide]"
6,0.014,"CNC(=O)c1c(-c2ccc(C)cc2)oc2nc(N(CCCCCN)S(C)(=O)=O)c(C3CC3)cc12 [Example 23.999994, 6-(N-(5-aminopentyl)methylsulfonamido)-5-cyclopropyl-N-methyl-2-p-tolylfuro[2,3-b]pyridine-3-carboxamide]"
7,0.005,"CNC(=O)c1c(-c2ccc(C)cc2)oc2nc(N(CCCC[C@H](COC)C(=O)N[C@H](CO)Cc3ccccc3)S(C)(=O)=O)c(C3CC3)cc12 [Example 47.6, 5-Cyclopropyl-6-(N—((R)-6-((S)-1-hydroxy-3-phenylpropan-2-ylamino)-5-(methoxymethyl)-6-oxohexyl)methylsulfonamido)-N-methyl-2-p-tolylfuro[2,3-b]pyridine-3-carboxamide]"
8,0.044,"CCc1cc2c(C(=O)NC)c(-c3ccc(F)cc3)oc2nc1N(CCCCC1=C(O)CCC1=O)S(C)(=O)=O [Example 23.94, 5-ethyl-2-(4-fluorophenyl)-6-(N-(4-(2-hydroxy-5-oxocyclopent-1-enyl)butyl)methylsulfonamido)-N-methylfuro[2,3-b]pyridine-3-carboxamide]"
9,0.132,"C=C(C)c1cc2c(C(=O)NC)c(-c3ccc(F)cc3)oc2nc1N(C)S(C)(=O)=O [Example 2.4, 2-(4-fluorophenyl)-N-methyl-6-(N-methylmethylsulfonamido)-5-(prop-1-en-2-yl)furo[2,3-b]pyridine-3-carboxamide]"
10,0.058,"CNC(=O)c1c(-c2ccc(F)cc2)oc2nc(N(C)S(C)(=O)=O)c(C(C)C)cc12 [Example 6.2, 2-(4-fluorophenyl)-5-isopropyl-N-methyl-6-(N-methylmethylsulfonamido)furo[2,3-b]pyridine-3-carboxamide]"
11,0.071,"CNC(=O)c1c(-c2ccc(C)cc2C)oc2nc(N(C)S(C)(=O)=O)c(C3CC3)cc12 [Example 2.99, 5-cyclopropyl-2-(2,4-dimethylphenyl)-N-methyl-6-(N-methylmethylsulfonamido)furo[2,3-b]pyridine-3-carboxamide]"
12,6.03,"C=C[C@@H](CN(c1nc2oc(-c3ccc(F)cc3)c(C(=O)NC)c2cc1C(=C)C)S(C)(=O)=O)OCc1ccccc1 [Example 35, (S)-6-(N-(2-(benzyloxy)but-3-enyl)methylsulfonamido)-2-(4-fluorophenyl)-N-methyl-5-(prop-1-en-2-yl)furo[2,3-b]pyridine-3-carboxamide]"
13,0.002,"CNC(=O)c1c(-c2ccc(C)cc2)oc2nc(N(CCC[C@H](COC)C(=O)O)S(C)(=O)=O)c(C3CC3)cc12 [Example 47.7, (R)-5-(N-(5-Cyclopropyl-3-(methylcarbamoyl)-2-p-tolylfuro[2,3-b]pyridin-6-yl)methylsulfonamido)-2-(methoxymethyl)pentanoic acid]"
14,0.058,"CCc1cc2c(C(=O)NC)c(-c3ccc(F)cc3)oc2nc1N(CCCCS(=O)(=O)c1ccccc1)S(C)(=O)=O [Example 23.8, 5-ethyl-2-(4-fluorophenyl)-N-methyl-6-(N-(4-(phenylsulfonyl)butyl)methylsulfonamido)furo[2,3-b]pyridine-3-carboxamide]"
15,0.004,"CNC(=O)c1c(-c2ccc(C)c(C)c2)oc2nc(N(CCCCC(=O)O)S(C)(=O)=O)c(C3CC3)cc12 [Example 29.999998, 5-(N-(5-cyclopropyl-2-(3,4-dimethylphenyl)-3-(methylcarbamoyl)furo[2,3-b]pyridin-6-yl)methylsulfonamido) pentanoic acid]"
16,0.772,"CCc1cc2c(C(=O)NC)c(-c3ccc(F)cc3)oc2nc1N(CCc1cccc(OC)c1)S(C)(=O)=O [Example 21.9, 5-ethyl-2-(4-fluorophenyl)-6-(N-(3-methoxyphenethyl)methylsulfonamido)-N-methylfuro[2,3-b]pyridine-3-carboxamide]"
17,0.003,"CNC(=O)c1c(-c2ccc(C)cc2)oc2nc(N(CCCCC3(C(=O)O)CCOCC3)S(C)(=O)=O)c(C3CC3)cc12 [Example 29.95, 4-(4-(N-(5-cyclopropyl-3-(methylcarbamoyl)-2-p-tolylfuro[2,3-b]pyridin-6-yl)methylsulfonamido)butyl) tetrahydro-2H-pyran-4-carboxylic acid]"
18,0.013,"CNC(=O)c1c(-c2ccc(C)cc2)oc2nc(N(CC(O)CCC(=O)O)S(C)(=O)=O)c(C3CC3)cc12 (stereo not shown) [Example 29.995, 5-(N-(5-cyclopropyl-3-(methylcarbamoyl)-2-p-tolylfuro[2,3-b]pyridin-6-yl)methylsulfonamido)-4-hydroxypentanoic acid]"
19,0.002,"CNC(=O)c1c(-c2ccc(C)cc2)oc2nc(N(CCCC(=O)O)S(C)(=O)=O)c(C3CC3)cc12 [Example 28.9, 4-(N-(5-cyclopropyl-3-(methylcarbamoyl)-2-p-tolylfuro[2,3-b]pyridin-6-yl)methylsulfonamido) butanoic acid]"
20,0.044,"CCNC(=O)c1c(-c2ccc(F)cc2)oc2nc(N(C)S(C)(=O)=O)c(C3CC3)cc12 [Example 2.7, 5-cyclopropyl-N-ethyl-2-(4-fluorophenyl)-6-(N-methylmethylsulfonamido)furo[2,3-b]pyridine-3-carboxamide]"
21,0.014,"C=CCCCN(c1nc2oc(-c3ccc(C)cc3)c(C(=O)NC)c2cc1C1CC1)S(C)(=O)=O [Example 29.99, 5-cyclopropyl-N-methyl-6-(N-(pent-4-enyl)methylsulfonamido)-2-p-tolylfuro[2,3-b]pyridine-3-carboxamide]"
22,1.06,"CCc1cc2c(C(=O)NC)c(-c3ccc(F)cc3)oc2nc1N(C(C)C)S(C)(=O)=O [Example 22.993, 5-ethyl-2-(4-fluorophenyl)-6-(N-isopropylmethylsulfonamido)-N-methylfuro[2,3-b]pyridine-3-carboxamide]"
23,0.037,"CCc1cc2c(C(=O)NC)c(-c3ccc(F)cc3)oc2nc1N(CCCS(=O)(=O)N1CCOCC1)S(C)(=O)=O [Example 21.98, 5-ethyl-2-(4-fluorophenyl)-N-methyl-6-(N-(3-(morpholinosulfonyl)propyl)methylsulfonamido)furo[2,3-b]pyridine-3-carboxamide]"
24,0.078,"CCCc1cc2c(C(=O)NC)c(-c3ccc(F)cc3)oc2nc1N(C)S(C)(=O)=O [Example 4.96, 2-(4-fluorophenyl)-N-methyl-6-(N-methylmethylsulfonamido)-5-propylfuro[2,3-b]pyridine-3-carboxamide]"
25,0.029,"CNC(=O)c1c(-c2ccc(Cl)cc2)oc2nc(N(CCCS(C)(=O)=O)S(C)(=O)=O)c(I)cc12 [Example 18.991, 2-(4-chlorophenyl)-5-iodo-N-methyl-6-(N-(3-(methylsulfonyl)propyl)methylsulfonamido)furo[2,3-b]pyridine-3-carboxamide]"
26,0.002,"CCc1ccc(-c2oc3nc(N(CCCC(C)(COC)C(=O)O)S(C)(=O)=O)c(C4CC4)cc3c2C(=O)NC)cc1 (stereo not shown) [Example 43, 5-(N-(5-Cyclopropyl-2-(4-ethylphenyl)-3-(methylcarbamoyl)furo[2,3-b]pyridin-6-yl)methylsulfonamido)-2-(methoxymethyl)-2-methylpentanoic acid]"

row,Compound,IC50 [µM]
1,"6-{[3-(1,1-Dioxo-tetrahydro-1lambdathiophen-2-yl)-propyl]-methanesulfonyl-amino}-5-ethyl-2-(4-fluoro-phenyl)-furo[2,3-b]pyridine-3-carboxylic acid methylamide [Example 22.99]",0.015
